The record followed here is US4113766A, “Oxaprostaglandins” (Pfizer Inc., priority 1975, dated 1978).

For test [1], the system named is estrogenized rat uterus. Put plainly: spasmogenic effect on estrogenized rat uterus in vitro. The class given is tissue-based. To be noted: in words; rat uterus vs guinea pig ileum, Table I. The text has this: (§1) These tests include, among others, a test for effect on isolated smooth muscle from guinea pig ileum and rat uterus, a test for effect on histamine induced bronchospasm in guinea pig, a test for effects on dog blood pressure, a test for induction of diarrhea in mice, and a test for the induction of abortion in early pregnant rats.
^(c) Threshold dose for spasmogenic effect on estrogenized rat uterus

Test [2] has as its system early pregnant rat. The experiment in a line: induction of abortion in early pregnant rats. Format: in vivo.
Text: as §1
On the basis of the difference seen in the rat uterus and guinea pig ileum tests with 19-oxaprostaglandin E2, one would expect to have a reduction of the unpleasant gastrointestinal side effects which were encountered when natural PGE2 was employed as an abortion inducer (Lancet, 536, 1971).

Test [3] relates to histamine induced bronchospasm. Put plainly: protection by aerosol against histamine induced bronchospasm in guinea pig. The conditions noted are these: in words, from Table I. The class given is in vivo. How it is done: as §1
^(b) Per cent protection by 100 μg/ml aerosol dose for histamine
induced bronchospasm in the guinea pig.

Take `COCCC[C@H](O)/C=C/[C@H]1[C@H](O)CC(=O)[C@@H]1C/C=C\CCCC(=O)O` [19-oxa PGE2, 9-oxo-11α,15α-dihydroxy-19-oxa-cis-5-trans-13-prostadienoic acid]: the tissue selectivity result in test [1] is recorded as “advantage of tissue selectivity”. For the same compound, in test [2], the “effectiveness relative to natural PGE2 in inducing abortion” value is reported as “as effective as natural PGE2”.
Turning to `CCOCCC[C@H](O)/C=C/[C@H]1[C@H](O)CC(=O)[C@@H]1C/C=C\CCCC(=O)O` [19-oxa-ω-homo-PGE2, 9-oxo-11α,15α-dihydroxy-19-oxa-cis-5-trans-13-w-homo-prostadienoic acid], in test [3], the “bronchodilator selectivity versus natural PGE2” value is reported as “more selective bronchodilator than natural PGE2”.
